The values that follow come from ChEMBL document CHEMBL1201862, “PubChem BioAssay data set” (2004).

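Growth conditions: 96-well plates. Treatment: test compound, 48 hours, 5 concentrations. Analysis: linear interpolation between bracketing concentrations; unreached endpoints set to highest concentration. GI50: concentration for 50% inhibition of growth.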 The source made the active and inactive calls. Rule as the data show it: active = GI50 up to about 1.1 µM and inactive = higher.

Among the test systems are 786-0; A498; CCRF-CEM; COLO 205; HCT-15; Hs-578T; KM12; MDA-N; MOLT-4; NCI-H226; OVCAR-4; PC-3; SF-268; SF-295; SK-MEL-2; SNB-19; SNB-75; SW-620; TK-10.
Holding throughout (assay): NCI-60 cell line screen, 48 h

Take `Oc1cc(F)cc2cccnc12`: the GI50 in the test on 786-0 is 7.29 µM (inactive); in the test with A498 it was 6.58 µM (inactive); in the test with CCRF-CEM, 0.0778 µM (active); in the test on COLO 205 it was 5.89 µM (inactive); in the test on HCT-15, 0.25 µM; with Hs-578T, 3.68 µM (inactive). In addition, the GI50 was 1.3 µM (inactive) in the test on KM12; 12.6 µM (inactive) in the test on MDA-N; 0.206 µM (active) with MOLT-4; 3.54 µM (inactive) with NCI-H226; 0.435 µM (active) in the test with OVCAR-4; 1.27 µM (inactive) with PC-3. In addition, the GI50 in the test with SF-268 is 0.218 µM (active); in the test on SF-295, 1.1 µM (active); in the test on SK-MEL-2, 16.4 µM (inactive); with SNB-19, 5.31 µM (inactive); in the test on SNB-75 it was 11.8 µM (inactive); with SW-620, 0.855 µM (active). The GI50 in the test with TK-10 is 17.9 µM (inactive).
As for `CC1CCCC(C(=O)CC2CC(=O)NC(=O)C2)C1=O` (configuration not stated), the GI50 is > 100 µM (inactive) with 786-0; > 100 µM (inactive) with A498; > 100 µM (inactive) in the test with CCRF-CEM; > 100 µM (inactive) in the test on COLO 205; more than 100 µM in the test on HCT-15; > 100 µM (inactive) in the test with Hs-578T. Also, the GI50 with KM12, with MDA-N, with MOLT-4, with NCI-H226, in the test with OVCAR-4 and in the test with PC-3 was > 100 µM (inactive) each time. The GI50 in the test on SF-268, in the test with SF-295, in the test on SK-MEL-2, with SNB-19, in the test on SNB-75 and with SW-620 was > 100 µM (inactive) each time. The GI50 in the test on TK-10 was > 100 µM (inactive).
Consider `O=C1CC(NC(=O)C(F)(F)F)c2c(Br)sc(N3CCNCC3)c21` (configuration not stated), for which the GI50 in the test on 786-0 is > 100 µM (inactive); with A498, > 100 µM (inactive); in the test with CCRF-CEM, > 100 µM (inactive); in the test on COLO 205, > 100 µM (inactive); with HCT-15, more than 100 µM; with Hs-578T it was > 100 µM (inactive). Further, the GI50 in the test on KM12, in the test with MDA-N, in the test with MOLT-4, in the test on NCI-H226, with OVCAR-4 and in the test on PC-3 was > 100 µM (inactive) throughout. Moreover, the GI50 in the test with SF-268 is > 100 µM (inactive); with SF-295 it was > 100 µM (inactive); in the test with SK-MEL-2 it was 13.2 µM (inactive); with SNB-19, > 100 µM (inactive); in the test with SNB-75, > 100 µM (inactive); in the test with SW-620 it was > 100 µM (inactive). Moreover, the GI50 with TK-10 was > 100 µM (inactive).
As for `COC1=CC(=O)c2c(cc(COP(N)(=O)N(CCCl)CCCl)n2C)C1=O` (configuration not stated), the GI50 was 0.0277 µM (active) in the test with 786-0; 2.2 µM (inactive) in the test on A498; < 0.0256 µM (active) in the test on CCRF-CEM; 1.39 µM (inactive) in the test with COLO 205; 1.13 µM in the test with HCT-15; 8.26 µM (inactive) in the test on Hs-578T. Besides, the GI50 was 1.49 µM (inactive) in the test with KM12; 1.61 µM (inactive) in the test with MDA-N; 0.0141 µM (active) with MOLT-4; 0.14 µM (active) in the test with NCI-H226; 3.52 µM (inactive) with OVCAR-4; 1.49 µM (inactive) in the test on PC-3. Also, the GI50 in the test with SF-268 is < 0.032 µM (active); in the test with SF-295, 0.189 µM (active); with SK-MEL-2, 1.84 µM (inactive); in the test on SNB-19, 2.64 µM (inactive); in the test on SNB-75, 0.955 µM (active); with SW-620 it was 0.158 µM (active). The GI50 with TK-10 is 1.67 µM (inactive).
As for `CCCCCNC1=CC(=O)c2ccccc2C1=O`, the GI50 in the test on 786-0 was 18.4 µM (inactive); in the test on A498 it was 32.1 µM (inactive); in the test on CCRF-CEM, > 100 µM (inactive); in the test on COLO 205 it was 79.6 µM (inactive); with HCT-15, 52.2 µM; in the test with Hs-578T it was 27.8 µM (inactive). Besides, the GI50 in the test on KM12 was > 100 µM (inactive); in the test with MDA-N, > 100 µM (inactive); in the test with MOLT-4, > 100 µM (inactive); in the test with NCI-H226, 31.6 µM (inactive); in the test on OVCAR-4, 59.7 µM (inactive); in the test with PC-3 it was 37.6 µM (inactive). Besides, the GI50 with SF-268 was 25.1 µM (inactive); in the test on SF-295, 26.3 µM (inactive); in the test on SK-MEL-2, 21.6 µM (inactive); in the test on SNB-19 it was 24.3 µM (inactive); in the test with SNB-75, 22.2 µM (inactive); in the test with SW-620 it was > 100 µM (inactive). Further, the GI50 in the test with TK-10 is 30.2 µM (inactive).
For the compound `C[C@H](c1ccccc1)n1c(N)c(-c2nc3ccccc3s2)c2ccc([N+](=O)[O-])cc2c1=O`, the GI50 in the test with 786-0 is 9.29 µM (inactive); with A498, 11 µM (inactive); in the test with CCRF-CEM it was 0.773 µM (active); in the test on COLO 205, 5.43 µM (inactive); in the test on HCT-15 it was 4.76 µM; with Hs-578T it was 2.58 µM (inactive). Also, the GI50 is 4.45 µM (inactive) in the test with KM12; 13.6 µM (inactive) with MDA-N; 2.32 µM (inactive) in the test on MOLT-4; 4.65 µM (inactive) in the test with NCI-H226; 4.34 µM (inactive) in the test on OVCAR-4; 3.09 µM (inactive) in the test on PC-3. For the same compound, the GI50 in the test with SF-268 is 6.27 µM (inactive); in the test with SF-295, 4.7 µM (inactive); with SK-MEL-2, 2.94 µM (inactive); in the test on SNB-19, 3.49 µM (inactive); in the test on SNB-75, 4.58 µM (inactive); with SW-620, 4.14 µM (inactive). In addition, the GI50 in the test on TK-10 was 10.2 µM (inactive).
`BC(=O)NC(CC(C)C)C(=O)NCC(=O)NC1c2ccsc2C(=O)C1O.CN(C)C` (configuration not stated): the GI50 in the test on 786-0 is > 100 µM (inactive); with A498 it was > 100 µM (inactive); in the test on CCRF-CEM, 31.6 µM (inactive); in the test on COLO 205, > 100 µM (inactive); in the test with HCT-15 it was more than 100 µM; with Hs-578T, > 100 µM (inactive). The GI50 in the test with KM12 was > 100 µM (inactive); in the test with MDA-N, > 100 µM (inactive); in the test on MOLT-4, > 100 µM (inactive); in the test with NCI-H226, 95.5 µM (inactive); in the test with OVCAR-4, > 100 µM (inactive); in the test with PC-3 it was > 100 µM (inactive). Moreover, the GI50 in the test on SF-268, in the test with SF-295, with SK-MEL-2, with SNB-19, in the test with SNB-75 and with SW-620 was > 100 µM (inactive) each time. Besides, in the test with TK-10, the GI50 is > 100 µM (inactive).
In the case of `COc1ccccc1/C=C/C1=NN(c2cccc(S(=O)(=O)O)c2)C2(C1)C(Cl)C(=O)N2c1nc2ccccc2s1` (configuration not stated), the GI50 in the test on 786-0 is 37.8 µM (inactive); with A498 it was > 81.3 µM (inactive); in the test with CCRF-CEM, 13.5 µM (inactive); in the test on COLO 205 it was 88.9 µM (inactive); in the test on HCT-15, 57.4 µM; in the test on Hs-578T, > 100 µM (inactive). In addition, the GI50 is 51.6 µM (inactive) in the test on KM12; 85.3 µM (inactive) with MDA-N; 34 µM (inactive) with MOLT-4; 28 µM (inactive) in the test on NCI-H226; 42.2 µM (inactive) with OVCAR-4; 76.6 µM (inactive) in the test on PC-3. Besides, the GI50 in the test on SF-268 is > 100 µM (inactive); in the test with SF-295, 89.3 µM (inactive); with SK-MEL-2, > 100 µM (inactive); in the test with SNB-19, > 84.7 µM (inactive); in the test with SNB-75, 42.8 µM (inactive); with SW-620, > 100 µM (inactive). For the same compound, in the test with TK-10, the GI50 is 45.1 µM (inactive).
